Positions of bridges follow the written chain, without caps; N, C: chain ends. Non-standard residues stand in square brackets, D forms with d. Residues, ends and D or L forms follow the SMILES beside them. Trp(1-Me) = Cn1cc(C[C@H](N)C(=O)O)c2ccccc21; Phe(4-I) = N[C@@H](Cc1ccc(I)cc1)C(=O)O; 1Nal = N[C@@H](Cc1cccc2ccccc12)C(=O)O
Legend:
Experiment in all cases: cell-based
hNav1.7 = hNav1.7 (Homo sapiens, UniProt Q15858); details: Nav1.7 Use IC50
hNav1.3 = hNav1.3 (Homo sapiens, UniProt Q9NY46); type: cell-based; details: Nav1.3 Use IC50
Chain of hNav1.3 (Q9NY46 whole entry, looked up): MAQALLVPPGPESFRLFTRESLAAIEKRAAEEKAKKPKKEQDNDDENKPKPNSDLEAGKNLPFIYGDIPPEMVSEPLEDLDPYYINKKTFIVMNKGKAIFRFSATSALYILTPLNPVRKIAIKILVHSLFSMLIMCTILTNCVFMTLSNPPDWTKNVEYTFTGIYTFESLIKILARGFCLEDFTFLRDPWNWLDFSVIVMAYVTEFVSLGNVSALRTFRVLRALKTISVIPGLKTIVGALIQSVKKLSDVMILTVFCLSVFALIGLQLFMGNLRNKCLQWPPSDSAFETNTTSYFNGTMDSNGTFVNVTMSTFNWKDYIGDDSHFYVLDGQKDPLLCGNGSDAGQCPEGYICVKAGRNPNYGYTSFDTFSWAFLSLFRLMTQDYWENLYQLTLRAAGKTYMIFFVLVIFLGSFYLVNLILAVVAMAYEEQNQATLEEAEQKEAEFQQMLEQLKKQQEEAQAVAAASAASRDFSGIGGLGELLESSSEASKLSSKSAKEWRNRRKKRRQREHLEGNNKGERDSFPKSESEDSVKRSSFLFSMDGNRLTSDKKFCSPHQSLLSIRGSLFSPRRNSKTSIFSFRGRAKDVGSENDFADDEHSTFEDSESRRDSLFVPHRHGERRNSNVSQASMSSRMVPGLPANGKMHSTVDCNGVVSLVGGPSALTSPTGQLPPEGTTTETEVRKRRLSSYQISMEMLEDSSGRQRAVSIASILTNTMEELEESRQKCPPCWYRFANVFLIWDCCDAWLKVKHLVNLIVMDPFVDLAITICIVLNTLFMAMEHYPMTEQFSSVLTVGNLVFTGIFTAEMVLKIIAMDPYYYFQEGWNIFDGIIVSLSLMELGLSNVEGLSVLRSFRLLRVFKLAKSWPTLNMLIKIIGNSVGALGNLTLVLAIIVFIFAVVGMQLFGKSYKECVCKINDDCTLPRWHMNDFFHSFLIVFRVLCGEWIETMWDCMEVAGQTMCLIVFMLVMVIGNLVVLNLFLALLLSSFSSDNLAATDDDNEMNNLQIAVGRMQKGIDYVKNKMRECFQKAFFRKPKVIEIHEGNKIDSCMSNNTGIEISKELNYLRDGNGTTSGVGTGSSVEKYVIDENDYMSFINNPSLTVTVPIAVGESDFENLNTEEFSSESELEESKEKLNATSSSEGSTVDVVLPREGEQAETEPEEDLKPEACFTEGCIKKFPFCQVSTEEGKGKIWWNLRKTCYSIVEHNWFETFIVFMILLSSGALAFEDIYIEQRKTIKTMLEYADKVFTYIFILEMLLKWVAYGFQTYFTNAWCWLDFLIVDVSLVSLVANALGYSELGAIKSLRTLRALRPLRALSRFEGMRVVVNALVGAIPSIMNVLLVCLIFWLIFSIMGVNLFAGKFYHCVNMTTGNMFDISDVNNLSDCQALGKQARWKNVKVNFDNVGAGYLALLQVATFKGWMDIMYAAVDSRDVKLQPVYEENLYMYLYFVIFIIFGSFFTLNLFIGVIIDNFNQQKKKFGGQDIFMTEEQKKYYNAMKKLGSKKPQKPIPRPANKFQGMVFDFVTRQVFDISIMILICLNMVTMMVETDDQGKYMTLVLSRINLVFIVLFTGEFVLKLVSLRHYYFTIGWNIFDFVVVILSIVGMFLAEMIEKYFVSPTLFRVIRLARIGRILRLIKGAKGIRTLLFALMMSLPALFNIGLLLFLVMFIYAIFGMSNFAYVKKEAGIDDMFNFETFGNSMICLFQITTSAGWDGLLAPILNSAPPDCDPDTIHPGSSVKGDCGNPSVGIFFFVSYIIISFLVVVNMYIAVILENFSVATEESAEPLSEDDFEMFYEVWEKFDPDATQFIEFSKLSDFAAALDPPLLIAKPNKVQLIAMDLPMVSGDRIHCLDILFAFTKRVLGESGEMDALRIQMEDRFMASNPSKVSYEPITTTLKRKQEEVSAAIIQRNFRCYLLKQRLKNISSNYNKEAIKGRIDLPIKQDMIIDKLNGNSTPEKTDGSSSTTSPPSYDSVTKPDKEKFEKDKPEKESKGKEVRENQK

hNav1.5 = hNav1.5 (Homo sapiens, UniProt Q14524)

Chain of hNav1.7 (Q15858 whole entry, looked up): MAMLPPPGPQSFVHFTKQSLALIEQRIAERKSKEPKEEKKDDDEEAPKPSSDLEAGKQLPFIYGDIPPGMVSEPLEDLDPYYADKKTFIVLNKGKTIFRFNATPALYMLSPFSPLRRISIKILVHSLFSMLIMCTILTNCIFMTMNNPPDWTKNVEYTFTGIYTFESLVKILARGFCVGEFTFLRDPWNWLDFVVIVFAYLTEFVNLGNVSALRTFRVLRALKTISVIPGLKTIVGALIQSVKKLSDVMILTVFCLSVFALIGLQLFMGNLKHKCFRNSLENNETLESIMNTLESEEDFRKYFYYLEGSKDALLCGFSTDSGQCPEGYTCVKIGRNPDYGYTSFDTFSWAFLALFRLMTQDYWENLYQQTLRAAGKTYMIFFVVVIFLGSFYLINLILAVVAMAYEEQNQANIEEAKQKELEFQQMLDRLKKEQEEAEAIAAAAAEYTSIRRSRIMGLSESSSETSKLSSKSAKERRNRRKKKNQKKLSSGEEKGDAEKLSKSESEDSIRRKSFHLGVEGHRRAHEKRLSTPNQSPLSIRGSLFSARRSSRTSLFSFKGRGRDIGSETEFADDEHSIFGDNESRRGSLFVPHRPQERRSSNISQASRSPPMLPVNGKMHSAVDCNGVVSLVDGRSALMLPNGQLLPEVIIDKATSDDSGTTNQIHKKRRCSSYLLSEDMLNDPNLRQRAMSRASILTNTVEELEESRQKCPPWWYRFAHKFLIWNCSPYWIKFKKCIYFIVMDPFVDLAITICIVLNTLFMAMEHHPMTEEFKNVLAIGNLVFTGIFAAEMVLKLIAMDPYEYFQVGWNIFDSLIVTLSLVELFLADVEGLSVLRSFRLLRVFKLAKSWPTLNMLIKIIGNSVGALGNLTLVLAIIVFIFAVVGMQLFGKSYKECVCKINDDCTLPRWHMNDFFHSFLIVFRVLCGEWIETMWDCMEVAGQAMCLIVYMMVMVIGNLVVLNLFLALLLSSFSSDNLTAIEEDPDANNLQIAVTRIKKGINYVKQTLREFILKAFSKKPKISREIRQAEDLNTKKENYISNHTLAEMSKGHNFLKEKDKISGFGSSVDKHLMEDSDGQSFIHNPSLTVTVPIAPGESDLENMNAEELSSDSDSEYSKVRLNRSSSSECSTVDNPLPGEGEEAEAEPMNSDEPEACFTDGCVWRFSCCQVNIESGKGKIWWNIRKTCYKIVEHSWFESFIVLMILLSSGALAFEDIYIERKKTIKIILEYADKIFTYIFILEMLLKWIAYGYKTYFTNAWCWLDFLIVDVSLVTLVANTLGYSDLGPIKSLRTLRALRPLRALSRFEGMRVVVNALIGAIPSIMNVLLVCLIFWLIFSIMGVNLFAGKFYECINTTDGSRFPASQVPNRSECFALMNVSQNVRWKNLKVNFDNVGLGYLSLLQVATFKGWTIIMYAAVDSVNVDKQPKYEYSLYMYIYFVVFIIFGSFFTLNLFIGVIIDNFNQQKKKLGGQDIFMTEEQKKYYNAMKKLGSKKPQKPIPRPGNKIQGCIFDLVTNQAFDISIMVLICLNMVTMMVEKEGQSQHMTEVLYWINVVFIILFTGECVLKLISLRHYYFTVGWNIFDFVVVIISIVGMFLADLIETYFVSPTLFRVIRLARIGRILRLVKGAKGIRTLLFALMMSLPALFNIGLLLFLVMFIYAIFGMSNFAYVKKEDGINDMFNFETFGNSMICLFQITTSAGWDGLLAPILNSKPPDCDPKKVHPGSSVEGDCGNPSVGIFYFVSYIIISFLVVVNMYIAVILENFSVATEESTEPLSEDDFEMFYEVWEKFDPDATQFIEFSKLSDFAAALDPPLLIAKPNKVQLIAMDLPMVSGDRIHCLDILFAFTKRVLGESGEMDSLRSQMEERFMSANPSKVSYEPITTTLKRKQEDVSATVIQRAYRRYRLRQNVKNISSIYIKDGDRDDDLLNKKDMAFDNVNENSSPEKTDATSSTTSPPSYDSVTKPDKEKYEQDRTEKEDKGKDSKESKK

SMILES	IC50 (hNav1.7)	IC50 (hNav1.3)	IC50 (hNav1.5)
CC[C@H](C)[C@@H]1NC(=O)[C@@H]2CSSC[C@@H]3NC(=O)[C@H](C(C)C)NC(=O)[C@H](CC(C)C)NC(=O)[C@H](CC(N)=O)NC(=O)[C@@H]4CCCN4C(=O)[C@H](CCCNC(=N)N)NC(=O)[C@H](CSSC[C@H](NC(=O)[C@@H](N)CC(=O)O)C(=O)N[C@@H](CC(C)C)C(=O)NCC(=O)N[C@@H](Cc4ccccc4)C(=O)N[C@@H](CCSC)C(=O)N[C@@H](CCCNC(=N)N)C(=O)N[C@@H](CCCCN)C(=O)N2)NC(=O)[C@H](CSSC[C@@H](C(=O)N[C@@H](CCCCN)C(=O)N[C@@H](Cc2ccc(O)cc2)C(=O)N[C@@H](CCC(N)=O)C(=O)N[C@@H](Cc2ccccc2)C(N)=O)NC(=O)[C@H](Cc2c[nH]c4ccccc24)NC(=O)[C@H](CCCCN)NC(=O)[C@H](Cc2c[nH]cn2)NC(=O)[C@H]([C@@H](C)O)NC(=O)[C@H](CCCNC(=N)N)NC(=O)[C@H](CO)NC3=O)NC(=O)[C@H](CCCCN)NC(=O)[C@H](CC(=O)O)NC(=O)[C@H](CC(N)=O)NC(=O)[C@H](CC(=O)O)NC(=O)[C@@H]2CCCN2C1=O [[Gln33]GpTx-1(1-34)] (H-DCLGFMRKCIPDNDKCCRPNLVCSRTHKWCKYQF-NH2; disulfide 2-17, 9-23, 16-30)	6 nM	10 nM	8250 nM
CC[C@H](C)[C@@H]1NC(=O)[C@@H]2CSSC[C@@H]3NC(=O)[C@H](C(C)C)NC(=O)[C@H](CC(C)C)NC(=O)[C@H](CC(N)=O)NC(=O)[C@@H]4CCCN4C(=O)[C@H](CCCNC(=N)N)NC(=O)[C@H](CSSC[C@H](NC(=O)[C@@H](N)CC(=O)O)C(=O)N[C@@H](CC(C)C)C(=O)NCC(=O)N[C@@H](Cc4ccccc4)C(=O)N[C@@H](CCSC)C(=O)N[C@@H](CCCNC(=N)N)C(=O)N[C@@H](CCCCN)C(=O)N2)NC(=O)[C@H](CSSC[C@@H](C(=O)N[C@@H](CCCCN)C(=O)N[C@@H](Cc2ccc(O)cc2)C(=O)N[C@@H](Cc2ccc(I)cc2)C(=O)N[C@@H](Cc2ccccc2)C(N)=O)NC(=O)[C@H](Cc2c[nH]c4ccccc24)NC(=O)[C@H](CCCCN)NC(=O)[C@H](Cc2c[nH]cn2)NC(=O)[C@H]([C@@H](C)O)NC(=O)[C@H](CCCNC(=N)N)NC(=O)[C@H](CO)NC3=O)NC(=O)[C@H](CCCCN)NC(=O)[C@H](CC(=O)O)NC(=O)[C@H](CC(N)=O)NC(=O)[C@H](CC(=O)O)NC(=O)[C@@H]2CCCN2C1=O [[pI-Phe33]GpTx-1(1-34)] (H-DCLGFMRKCIPDNDKCCRPNLVCSRTHKWCKY[Phe(4-I)]F-NH2; disulfide 2-17, 9-23, 16-30)	26 nM	35 nM	10400 nM
CC[C@H](C)[C@@H]1NC(=O)[C@@H]2CSSC[C@@H]3NC(=O)[C@H](C(C)C)NC(=O)[C@H](CC(C)C)NC(=O)[C@H](CC(N)=O)NC(=O)[C@@H]4CCCN4C(=O)[C@H](CCCNC(=N)N)NC(=O)[C@H](CSSC[C@H](NC(=O)[C@@H](N)CC(=O)O)C(=O)N[C@@H](CC(C)C)C(=O)NCC(=O)N[C@@H](C)C(=O)N[C@@H](CCSC)C(=O)N[C@@H](CCCNC(=N)N)C(=O)N[C@@H](CCCCN)C(=O)N2)NC(=O)[C@H](CSSC[C@@H](C(=O)N[C@@H](CCCCN)C(=O)N[C@@H](Cc2ccc(O)cc2)C(=O)N[C@H](C(=O)N[C@@H](Cc2ccccc2)C(N)=O)C(C)C)NC(=O)[C@H](Cc2c[nH]c4ccccc24)NC(=O)[C@H](CCCNC(=N)N)NC(=O)[C@H](Cc2c[nH]cn2)NC(=O)[C@H]([C@@H](C)O)NC(=O)[C@H](CCCNC(=N)N)NC(=O)[C@H](CO)NC3=O)NC(=O)[C@H](CCCCN)NC(=O)[C@H](CC(=O)O)NC(=O)[C@H](CC(N)=O)NC(=O)[C@H](CC(=O)O)NC(=O)[C@@H]2CCCN2C1=O [[Ala5;Arg28]GpTx-1(1-34)] (H-DCLGAMRKCIPDNDKCCRPNLVCSRTHRWCKYVF-NH2; disulfide 2-17, 9-23, 16-30)	77 nM	440 nM	> 10000 nM
CC[C@H](C)[C@@H]1NC(=O)[C@@H]2CSSC[C@@H]3NC(=O)[C@H](C(C)C)NC(=O)[C@H](CC(C)C)NC(=O)[C@H](CC(N)=O)NC(=O)[C@@H]4CCCN4C(=O)[C@H](CCCNC(=N)N)NC(=O)[C@H](CSSC[C@H](NC(=O)[C@@H](N)CC(=O)O)C(=O)N[C@@H](CC(C)C)C(=O)NCC(=O)N[C@@H](Cc4ccccc4)C(=O)N[C@@H](CCSC)C(=O)N[C@@H](CCCNC(=N)N)C(=O)N[C@@H](CCCCN)C(=O)N2)NC(=O)[C@H](CSSC[C@@H](C(=O)N[C@@H](CCCCN)C(=O)N[C@@H](Cc2ccc(O)cc2)C(=O)N[C@H](C(=O)N[C@@H](Cc2cccc4ccccc24)C(N)=O)C(C)C)NC(=O)[C@H](Cc2c[nH]c4ccccc24)NC(=O)[C@H](CCCCN)NC(=O)[C@H](Cc2cnc[nH]2)NC(=O)[C@H]([C@@H](C)O)NC(=O)[C@H](CCCNC(=N)N)NC(=O)[C@H](CO)NC3=O)NC(=O)[C@H](CCCCN)NC(=O)[C@H](CC(=O)O)NC(=O)[C@H](CC(N)=O)NC(=O)[C@H](CC(=O)O)NC(=O)[C@@H]2CCCN2C1=O [[1-Nal34]GpTx-1(1-34)] (H-DCLGFMRKCIPDNDKCCRPNLVCSRTHKWCKYV[1Nal]-NH2; disulfide 2-17, 9-23, 16-30)	4 nM	7 nM	1860 nM
CC[C@H](C)[C@@H]1NC(=O)[C@@H]2CSSC[C@@H]3NC(=O)[C@H](C(C)C)NC(=O)[C@H](CC(C)C)NC(=O)[C@H](CC(N)=O)NC(=O)[C@@H]4CCCN4C(=O)[C@H](CCCNC(=N)N)NC(=O)[C@H](CSSC[C@H](NC(=O)[C@@H](N)CC(=O)O)C(=O)N[C@@H](CC(C)C)C(=O)NCC(=O)N[C@@H](C)C(=O)N[C@@H](CCSC)C(=O)N[C@@H](CCCNC(=N)N)C(=O)N[C@@H](CCCCN)C(=O)N2)NC(=O)[C@H](CSSC[C@@H](C(=O)N[C@@H](CCCCN)C(=O)N[C@@H](Cc2ccc(O)cc2)C(=O)N[C@@H](Cc2cccc4ccccc24)C(=O)N[C@@H](Cc2ccccc2)C(N)=O)NC(=O)[C@H](Cc2c[nH]c4ccccc24)NC(=O)[C@H](CCCCN)NC(=O)[C@H](Cc2c[nH]cn2)NC(=O)[C@H]([C@@H](C)O)NC(=O)[C@H](CCCNC(=N)N)NC(=O)[C@H](CO)NC3=O)NC(=O)[C@H](CCCCN)NC(=O)[C@H](CC(=O)O)NC(=O)[C@H](CC(N)=O)NC(=O)[C@H](CC(=O)O)NC(=O)[C@@H]2CCCN2C1=O [[Ala5;1-Nal33]GpTx-1(1-34)] (H-DCLGAMRKCIPDNDKCCRPNLVCSRTHKWCKY[1Nal]F-NH2; disulfide 2-17, 9-23, 16-30)	48 nM	201 nM	> 10000 nM
CC[C@H](C)[C@@H]1NC(=O)[C@@H]2CSSC[C@@H]3NC(=O)[C@H](C(C)C)NC(=O)[C@H](CC(C)C)NC(=O)[C@H](CC(N)=O)NC(=O)[C@@H]4CCCN4C(=O)[C@H](CCCNC(=N)N)NC(=O)[C@H](CSSC[C@H](NC(=O)[C@@H](N)CC(=O)O)C(=O)N[C@@H](CC(C)C)C(=O)NCC(=O)N[C@@H](Cc4ccccc4)C(=O)N[C@@H](CCSC)C(=O)N[C@@H](CCCNC(=N)N)C(=O)N[C@@H](CCCCN)C(=O)N2)NC(=O)[C@H](CSSC[C@@H](C(=O)N[C@@H](CCCCN)C(=O)N[C@@H](Cc2cccc4ccccc24)C(=O)N[C@H](C(=O)N[C@@H](Cc2ccccc2)C(N)=O)C(C)C)NC(=O)[C@H](Cc2c[nH]c4ccccc24)NC(=O)[C@H](CCCNC(=N)N)NC(=O)[C@H](Cc2c[nH]cn2)NC(=O)[C@H]([C@@H](C)O)NC(=O)[C@H](CCCNC(=N)N)NC(=O)[C@H](CO)NC3=O)NC(=O)[C@H](CCCCN)NC(=O)[C@H](CC(=O)O)NC(=O)[C@H](CC(N)=O)NC(=O)[C@H](CC(=O)O)NC(=O)[C@@H]2CCCN2C1=O [[Arg28;1-Nal32]GpTx-1(1-34)] (H-DCLGFMRKCIPDNDKCCRPNLVCSRTHRWCK[1Nal]VF-NH2; disulfide 2-17, 9-23, 16-30)	5 nM	6 nM	1060 nM
CC[C@H](C)[C@@H]1NC(=O)[C@@H]2CSSC[C@@H]3NC(=O)[C@H](C(C)C)NC(=O)[C@H](CC(C)C)NC(=O)[C@H](CC(N)=O)NC(=O)[C@@H]4CCCN4C(=O)[C@H](CCCNC(=N)N)NC(=O)[C@H](CSSC[C@H](NC(=O)[C@@H](N)CC(=O)O)C(=O)N[C@@H](CC(C)C)C(=O)NCC(=O)N[C@@H](Cc4ccccc4)C(=O)N[C@@H](CCSC)C(=O)N[C@@H](CCCNC(=N)N)C(=O)N[C@@H](CCCCN)C(=O)N2)NC(=O)[C@H](CSSC[C@@H](C(=O)N[C@@H](CCCCN)C(=O)N[C@@H](Cc2ccc(O)cc2)C(=O)N[C@@H](Cc2cn(C)c4ccccc24)C(=O)N[C@@H](Cc2ccccc2)C(N)=O)NC(=O)[C@H](Cc2c[nH]c4ccccc24)NC(=O)[C@H](CCCCN)NC(=O)[C@H](Cc2c[nH]cn2)NC(=O)[C@H]([C@@H](C)O)NC(=O)[C@H](CCCNC(=N)N)NC(=O)[C@H](CO)NC3=O)NC(=O)[C@H](CCCCN)NC(=O)[C@H](CC(=O)O)NC(=O)[C@H](CC(N)=O)NC(=O)[C@H](CC(=O)O)NC(=O)[C@@H]2CCCN2C1=O [[1′NMeW33]GpTx-1(1-34)] (H-DCLGFMRKCIPDNDKCCRPNLVCSRTHKWCKY[Trp(1-Me)]F-NH2; disulfide 2-17, 9-23, 16-30)	54 nM	37 nM	9540 nM

— patent US9340590B2 (priority 2011, dated 2016)
